Data published in paper PMC12606047, “Targeting the Liquid–Liquid Separation Region of c‐Maf for Treating Chromosomal Translocations in Multiple Myeloma” (MedComm, 2025).

Columns and labels:
[1] = system: 5TMM3VT mouse myeloma cells; test: 5TMM3VT mouse model; assay type: in vivo, C57BL/KaLwRij mice; settings: single treatment; BBA 5 mg/kg, BTZ 1 mg/kg
Experimental: 5TMM3VT mouse myeloma cells (1 × 10^6) were injected through the tail vein into C57BL/KaLwRij mice from Harlan Laboratories (n = 9 per group). The mice were randomly divided into four groups (Ctrl, BBA, BTZ and BBA+BTZ combination groups). On the third day after modeling, oral administration of PBS, BBA (5 mg/kg) and BTZ (1 mg/kg) was performed twice a week, while combination therapy was administered every other day.

[2] = system: MM PDX tumor; test: MM patient-derived tumor xenograft (PDX) model; assay type: in vivo, NOD/SCID mice; settings: IHC and IF, single treatment
Experimental: The biopsy sample was taken from tumor tissue excised from MM patient at Nanjing Hospital of Chinese Medicine affiliated with Nanjing University of Chinese Medicine. The tissue was then cut into 2.5×2.5×2.5 mm^3 pieces and transplanted subcutaneously into 6-week-old NOD/SCID male mice (n = 6 mice in each group) under anesthesia with 1% sodium pentobarbital. […] This process was repeated three times to ensure stable tumor growth. […] Single treatment was administered every three days, while combination treatment was administered every other day.

[3] = target: T1, c-Maf protein (Homo sapiens, UniProt O75444); test: Surface plasmon resonance (SPR) binding to c-Maf protein; settings: values given in mM; read-out: SPR dissociation constant (Kd)
T1 construct: made in house; host or cells: prokaryotic (pET-28a vector)
T1 sequence (O75444 1-373): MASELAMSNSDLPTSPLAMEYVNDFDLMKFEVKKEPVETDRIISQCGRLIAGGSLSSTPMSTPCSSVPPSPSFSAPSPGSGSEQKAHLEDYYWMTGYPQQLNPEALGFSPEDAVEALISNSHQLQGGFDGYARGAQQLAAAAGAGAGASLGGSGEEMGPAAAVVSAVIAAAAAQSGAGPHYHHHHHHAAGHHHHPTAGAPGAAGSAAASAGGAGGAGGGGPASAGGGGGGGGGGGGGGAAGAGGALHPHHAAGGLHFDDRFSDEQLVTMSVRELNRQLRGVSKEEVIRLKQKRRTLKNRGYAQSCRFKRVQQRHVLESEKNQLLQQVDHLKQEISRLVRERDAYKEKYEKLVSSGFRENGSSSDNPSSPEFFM

[4] = system: ARP1 cells; test: MTT proliferation assay, ARP1 cells; assay type: cell-based, human; settings: ARP1 WT; Table 2 prints no cell line, its BBA value equals the ARP1 IC50 of b29
[5] = target: T1, c-Maf protein; test: Microscale thermophoresis (MST) binding to c-Maf protein; settings: labelled purified c-Maf protein; read-out: MST dissociation constant (Kd)
Experimental: To determine if the screened compound interacts with the c-Maf protein, we used a MonolithTM RED-NHS second generation protein labelling kit (NanoTemper Germany) to fluorescently label 10 µM of purified c-Maf protein. We then mixed various concentrations of the drug with an equal concentration of c-Maf protein and incubated the mixture for 5 min at room temperature. The mixture was then aspirated with a capillary tube and the binding capacity was measured using a new generation biomolecular interaction assay (NanoTemper Germany). The Kd values were calculated using analytical software.

| Compound | Survival time of 5TMM3VT mice [1] | Expression of c-Maf, Ki67, RNA Pol II, Mtbp, c-Myc and c-Maf/RNA Pol II co-localization in tumors [2] | Kd [3] | MTT IC50 [4] | Kd [5] |
| --- | --- | --- | --- | --- | --- |
| CC(C)C[C@H](NC(=O)[C@H](Cc1ccccc1)NC(=O)c1cnccn1)B(O)O [BTZ, bortezomib] | significantly improved | inhibited |  |  |  |
| Chlorophenylacetamide |  |  | 3.31 mM | Unstable | 555 µM |
